In patent publication US7994177B2, “Therapeutic agents useful for treating pain” (Purdue Pharma L.P., priority 2003, dated 2011):

What was measured:
human VR1 [1] = molecular target: T1, human VR1 (Homo sapiens, UniProt Q8NER1); experiment: Capsaicin-based assay of human VR1 (FLIPR calcium influx); type: cell-based; conditions: activation by capsaicin (400 nM), HEK293-EcR cells expressing human VR1, n=3
T1 construct: expressed in transfected cells
Procedure: (§1) Human VR1 Cloning: Human spinal cord RNA (commercially available from Clontech, Palo Alto, Calif.) was used. Reverse transcription was conducted on 1.0 μg total RNA using Thermoscript Reverse Transcriptase (commercially available from Invitrogen) and oligo dT primers as detailed in its product description. Reverse transcription reactions were incubated at 55° C. for 1 h, heat-inactivated at 85° C. for 5 min, and RNase H-treated at 37° C. for 20 min.
(§2) Human VR1 cDNA sequence was obtained by comparison of the human genomic sequence, prior to annotation, to the published rat sequence. Intron sequences were removed and flanking exonic sequences were joined to generate the hypothetical human cDNA. Primers flanking the coding region of human VR1 were designed as follows: forward primer, […]; and reverse primer, […]. […]
(§3) Generation of Inducible Cell Lines: Unless noted otherwise, cell culture reagents were purchased from Life Technologies of Rockville, Md. […] On the day of assay, cells were loaded with Fluo-4 (a calcium-sensitive dye that is commercially available from Molecular Probes) and CAP-mediated calcium influx was measured using a FLIPR as described below. […]

human VR1 [2] = molecular target: T1, human VR1; experiment: pH-based assay of human VR1 (FLIPR calcium influx); type: cell-based; conditions: agonist buffer pH 5.5, HEK293-EcR cells expressing human VR1, n=4
Procedure: as §1, §2, §3

T1 sequence (Q8NER1 whole entry): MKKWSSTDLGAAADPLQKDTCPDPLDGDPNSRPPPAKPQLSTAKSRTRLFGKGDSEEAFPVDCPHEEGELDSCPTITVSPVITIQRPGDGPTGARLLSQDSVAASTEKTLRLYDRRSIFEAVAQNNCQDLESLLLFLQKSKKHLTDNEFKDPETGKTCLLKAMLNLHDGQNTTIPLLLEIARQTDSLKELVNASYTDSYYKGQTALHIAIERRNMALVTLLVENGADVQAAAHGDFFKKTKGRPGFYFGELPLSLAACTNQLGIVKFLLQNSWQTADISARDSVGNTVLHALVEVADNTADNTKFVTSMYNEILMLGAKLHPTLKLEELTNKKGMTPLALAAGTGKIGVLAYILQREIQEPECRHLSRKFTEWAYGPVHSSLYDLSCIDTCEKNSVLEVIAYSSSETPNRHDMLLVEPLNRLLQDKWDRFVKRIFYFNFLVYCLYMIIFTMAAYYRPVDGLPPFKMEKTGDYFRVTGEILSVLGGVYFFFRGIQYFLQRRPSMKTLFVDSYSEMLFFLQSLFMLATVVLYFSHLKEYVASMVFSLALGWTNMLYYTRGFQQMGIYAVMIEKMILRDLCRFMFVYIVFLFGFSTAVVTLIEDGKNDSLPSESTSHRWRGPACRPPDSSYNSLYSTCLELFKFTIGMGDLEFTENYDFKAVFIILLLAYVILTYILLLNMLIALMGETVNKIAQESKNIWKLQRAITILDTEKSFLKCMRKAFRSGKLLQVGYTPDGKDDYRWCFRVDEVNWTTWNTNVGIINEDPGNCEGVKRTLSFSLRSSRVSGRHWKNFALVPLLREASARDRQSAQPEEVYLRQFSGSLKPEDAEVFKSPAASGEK

An IC50 (human VR1 [1]) of 65.5 ± 17.3 nM and an IC50 (human VR1 [2]) of 826 ± 248 nM were found for `Cc1cccnc1-c1ccc(C(=O)Nc2ccc(C(C)(C)C)cc2)nc1` [E35(a)] in this work.
